Measurements: patent publication US20130225629A1, “TARGETING PI3K/MTOR SIGNALLING AND NEUTROPHIL RECRUITMENT FOR TREATMENT OF ENTERITIS” (THE UNIVERSITY OF NORTH CAROLINA AT CHAPEL HILL, priority 2012, published 2013)

Assays:
[1] = system: AKT (S473); assay: Western blot of AKT phosphorylation in colonic lysates of C. jejuni infected mice; assay type: in vivo; settings: AS252424 10 mg/kg i.p. daily, 6 days
Protocol: A segment of the distal colon was lysed in 300 μl Laemmli buffer, homogenized and heated at 95° C. for 5 min. 20 μg of total protein were separated by SDS-PAGE and transferred to nitrocellulose membranes. Targeted protein was detected using enhanced chemiluminescence reaction (ECL) as described previously (Muhlbauer et al., 2008). Primary antibodies used were phosphor-AKT (S473), phosphor-p70S6K (T389), total AKT (all from Cell Signaling, Danvers, Mass., United States of America) and EGFP (Sigma, St. Louis, Mo., United States of America). The density of Western blot bands was quantified using ImageJ and data were normalized to total AKT control.

[2] = system: neutrophils (MPO); assay: Myeloperoxidase (MPO) immunohistochemistry of colon, neutrophil infiltration; assay type: in vivo, mice; settings: in the presence of AS252424
Protocol: Deparaffinized colon sections were treated with 3% H2O2 for 10 minutes to quench endogenous peroxidases. Antigen retrieval was performed using microwave heating for 10 min in 10 mM citrate buffer pH 6.0. Sections were blocked in 5% goat serum TBS-T for 1 hour. The slides were incubated overnight at 4° C. with an anti-MPO antibody (1:400) (Thermo Scientific, Hampton, N.H., United States of America). Secondary biotinylated antibody was diluted at 1:1000 with the VECTASTAIN® ABC Elite Kit (Vector Laboratories, Inc., Burlingame, Calif., United States of America). Visualization was performed using DAB chromogen (Dako, Inc., Carpinteria, Calif., United States of America). Finally, sections were counterstained with hematoxylin for 5 seconds. Sections were imaged at the OLYMPUS® microscope using DP 71 camera and DP Controller 3.1.1.276 (Olympus, Center Valley, Pa., United States of America).
Neutrophils in intestinal tissue were detected using anti-myeloperoxidase (MPO) IHC as described previously (Sun et al., 2012). Briefly, intestinal tissue sections were deparaffinized, blocked and incubated with an anti-MPO antibody (1:400; Thermo Scientific, Hampton, N.H., United States of America) overnight. […]

[3] = system: C. jejuni; assay type: in vivo, mice
Description: All animal protocols were approved by the Institutional Animal Care and Use Committee of the University of North Carolina at Chapel Hill (Chapel Hill, N.C., United States of America). Germ-free 8 to 12 week old II10^−/−; NF-κBEGFP (129/SvEv; C57BL/6 mixed background) mice were transferred from germ-free isolators and immediately gavaged with 10^9 C. jejuni cfu/mouse (strain 81-176 (Korlath et al., 1985)). Mice were then housed under Specific Pathogen-Free (SPF) conditions and sacrificed at 5 or 12 days. Germ-free II10^−/−; NF-κB^EGFP mice were also gavaged with 10^7 Salmonella typhimurium (S. typhimurium strain CA32) cfu/mouse for 2 days or 10^7 Escherichia coli (E. coli strain NC 101) cfu/mouse for 12 days. Conventionally-derived II10^−/−; NF-κB^EGFP mice were put on an antibiotic cocktail (streptomycin 2 g/L, gentamycin 0.5 g/L, bacteriocin 1 g/L and ciprofloxacin 0.125 g/L) in water for 7 days and antibiotics withdrawn 24 hours prior to infection. The mice were then gavaged with 10^9 C. jejuni cfu/mouse for 14 days. To inhibit mTOR signaling, mice were injected daily intraperitoneally (i.p.) with rapamycin (1.5 mg/kg) (Fisher Scientific, Hampton, N.H., United States of America). At the end of the experiment, mice were euthanized using CO2 intoxication. Colon, mesenteric lymph nodes (MLN) and spleen were collected for further processing RNA, protein or C. jejuni culture on Campylobacter selective blood plates (Remel, Thermo Scientific, Hampton, N.H., United States of America) for 48 h at 37° C. using the GasPak system (Becton Dickinson, Franklin Lakes, N.J., United States of America). […] Colons were fixed in 10% buffered formalin (Fisher Scientific, Hampton, N.H., United States of America) overnight, paraffin-embedded, sectioned, and stained with H&E for histological evaluation. Images were acquired using a DP71 camera and DP Controller 3.1.1.276 (Olympus, Center Valley, Pa., United States of America). Intestinal inflammation was scored by evaluating the degree of lamina propria immune cell infiltration, goblet cell depletion, architectural distortion, as well as crypt hyperplasia, ulceration, and abscesses using a score from 0-4. (Lippert et al., 2009). Cecal and colonic inflammation induced by S. typhimurium was evaluated using a score from 0-13 as described. (Hapfelmeier et al., 2005).
MLN and spleen were aseptically resected. Colon tissue was opened, resected and washed three times in sterile PBS. […] C. jejuni colonies were counted and data presented as colony forming unit (cfu)/g tissue.

## O=C1NC(=O)/C(=C/c2ccc(-c3ccc(F)cc3O)o2)S1 [AS252424]
[1]
  AKT phosphorylation (S473) in colonic extracts: modest reduction
[2]
  C. jejuni-induced neutrophil infiltration into colonic tissues (MPO staining): strongly reduced
[3]; AS252424 vs infected vehicle-treated mice
  levels of viable C. jejuni in the spleen: strongly reduced
[3]; mouse, in vivo
  decrease of viable C. jejuni in MLN: 90%
  decrease of viable C. jejuni in colon: 97%
